Source: ChEMBL document CHEMBL1201862, “PubChem BioAssay data set” (2004)
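Briefly, cells in 96-well plates were exposed to five compound concentrations for 48 h, and endpoints were estimated by linear interpolation. The concentration for 50% growth inhibition is given as GI50.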 The source made the active and inactive calls. Rule as the data show it: active = GI50 up to about 1.1 µM and inactive = higher.

Key:
Assay in all cases: NCI-60 cell line screen, 48 h
786-0 = system: 786-0
A498 = system: A498
A549 = system: A549
ACHN = system: ACHN
BT-549 = system: BT-549
CAKI-1 = system: CAKI-1
CCRF-CEM = system: CCRF-CEM
COLO 205 = system: COLO 205
DU-145 = system: DU-145
EKVX = system: EKVX
HCC 2998 = system: HCC 2998
HCT-116 = system: HCT-116
HCT-15 = system: HCT-15
HOP-62 = system: HOP-62
HOP-92 = system: HOP-92
HT-29 = system: HT-29
Hs-578T = system: Hs-578T
IGROV-1 = system: IGROV-1
K562 = system: K562
KM12 = system: KM12
LOX IMVI = system: LOX IMVI
M14 = system: M14
MCF7 = system: MCF7
MDA-MB-231 = system: MDA-MB-231
MDA-MB-435 = system: MDA-MB-435
MDA-N = system: MDA-N
MOLT-4 = system: MOLT-4
Malme-3M = system: Malme-3M
NCI-H226 = system: NCI-H226
NCI-H23 = system: NCI-H23
NCI-H460 = system: NCI-H460
NCI-H522 = system: NCI-H522
NCI/ADR-RES = system: NCI/ADR-RES
OVCAR-3 = system: OVCAR-3
OVCAR-4 = system: OVCAR-4
OVCAR-5 = system: OVCAR-5
OVCAR-8 = system: OVCAR-8
PC-3 = system: PC-3
RPMI-8226 = system: RPMI-8226
SF-268 = system: SF-268
SF-295 = system: SF-295
SK-MEL-28 = system: SK-MEL-28
SK-MEL-2 = system: SK-MEL-2
SK-MEL-5 = system: SK-MEL-5
SK-OV-3 = system: SK-OV-3
SN12C = system: SN12C
SNB-19 = system: SNB-19
SNB-75 = system: SNB-75
SR = system: SR
SW-620 = system: SW-620
T47D = system: T47D
TK-10 = system: TK-10
U-251 = system: U-251
UACC-257 = system: UACC-257
UACC-62 = system: UACC-62
UO-31 = system: UO-31
HL-60 = system: HL-60
RXF 393 = system: RXF 393
SF-539 = system: SF-539

Compound: COc1ccc(-n2cnc3c(NCC(=O)O)ncnc32)cc1
- GI50 (786-0): > 100 µM (inactive)
- GI50 (A498): > 100 µM (inactive)
- GI50 (A549): > 100 µM (inactive)
- GI50 (ACHN): > 100 µM (inactive)
- GI50 (BT-549): > 100 µM (inactive)
- GI50 (CAKI-1): > 100 µM (inactive)
- GI50 (CCRF-CEM): 48.5 µM (inactive)
- GI50 (COLO 205): > 100 µM (inactive)
- GI50 (DU-145): > 100 µM (inactive)
- GI50 (EKVX): > 100 µM (inactive)
- GI50 (HCC 2998): > 100 µM (inactive)
- GI50 (HCT-116): > 100 µM (inactive)
- GI50 (HCT-15): > 100 µM
- GI50 (HOP-62): > 100 µM (inactive)
- GI50 (HOP-92): > 100 µM (inactive)
- GI50 (HT-29): > 100 µM (inactive)
- GI50 (Hs-578T): > 100 µM (inactive)
- GI50 (IGROV-1): > 100 µM (inactive)
- GI50 (K562): > 100 µM (inactive)
- GI50 (KM12): > 100 µM (inactive)
- GI50 (LOX IMVI): > 100 µM (inactive)
- GI50 (M14): > 100 µM (inactive)
- GI50 (MCF7): > 100 µM (inactive)
- GI50 (MDA-MB-231): > 100 µM (inactive)
- GI50 (MDA-MB-435): > 100 µM (inactive)
- GI50 (MDA-N): > 100 µM (inactive)
- GI50 (MOLT-4): > 100 µM (inactive)
- GI50 (Malme-3M): 54.1 µM (inactive)
- GI50 (NCI-H226): > 100 µM (inactive)
- GI50 (NCI-H23): > 100 µM (inactive)
- GI50 (NCI-H460): > 100 µM (inactive)
- GI50 (NCI-H522): > 100 µM (inactive)
- GI50 (NCI/ADR-RES): > 100 µM (inactive)
- GI50 (OVCAR-3): > 100 µM (inactive)
- GI50 (OVCAR-4): > 100 µM (inactive)
- GI50 (OVCAR-5): > 100 µM (inactive)
- GI50 (OVCAR-8): > 100 µM (inactive)
- GI50 (PC-3): > 100 µM (inactive)
- GI50 (RPMI-8226): > 100 µM (inactive)
- GI50 (SF-268): > 100 µM (inactive)
- GI50 (SF-295): > 100 µM (inactive)
- GI50 (SK-MEL-28): > 100 µM (inactive)
- GI50 (SK-MEL-2): > 100 µM (inactive)
- GI50 (SK-MEL-5): > 100 µM (inactive)
- GI50 (SK-OV-3): > 100 µM (inactive)
- GI50 (SN12C): > 100 µM (inactive)
- GI50 (SNB-19): > 100 µM (inactive)
- GI50 (SNB-75): > 100 µM (inactive)
- GI50 (SR): > 100 µM (inactive)
- GI50 (SW-620): > 100 µM (inactive)
- GI50 (T47D): > 100 µM (inactive)
- GI50 (TK-10): > 100 µM (inactive)
- GI50 (U-251): > 100 µM (inactive)
- GI50 (UACC-257): > 100 µM (inactive)
- GI50 (UACC-62): > 100 µM (inactive)
- GI50 (UO-31): > 100 µM (inactive)

Compound: COC(=O)c1c(C)c2c(c(C)c1C(=O)OC)-c1c(C)ccc3ccc(C)c-2c13
- GI50 (786-0): 19.1 µM (inactive)
- GI50 (A498): > 72.6 µM (inactive)
- GI50 (A549): 37.9 µM (inactive)
- GI50 (ACHN): > 100 µM (inactive)
- GI50 (BT-549): > 100 µM (inactive)
- GI50 (CAKI-1): > 100 µM (inactive)
- GI50 (CCRF-CEM): 11.4 µM (inactive)
- GI50 (COLO 205): 34.4 µM (inactive)
- GI50 (DU-145): > 100 µM (inactive)
- GI50 (EKVX): 66.4 µM (inactive)
- GI50 (HCT-116): 50.1 µM (inactive)
- GI50 (HCT-15): 13 µM
- GI50 (HL-60): 5.08 µM (inactive)
- GI50 (HOP-62): > 100 µM (inactive)
- GI50 (HT-29): 7.82 µM (inactive)
- GI50 (Hs-578T): 23.7 µM (inactive)
- GI50 (IGROV-1): 54 µM (inactive)
- GI50 (K562): 3.03 µM (inactive)
- GI50 (KM12): 9.38 µM (inactive)
- GI50 (LOX IMVI): 12.1 µM (inactive)
- GI50 (M14): 21 µM (inactive)
- GI50 (MCF7): > 78.3 µM (inactive)
- GI50 (MDA-MB-231): 3.94 µM (inactive)
- GI50 (MDA-MB-435): > 83 µM (inactive)
- GI50 (MDA-N): 61.5 µM (inactive)
- GI50 (MOLT-4): 14.4 µM (inactive)
- GI50 (Malme-3M): > 55.1 µM (inactive)
- GI50 (NCI-H226): > 100 µM (inactive)
- GI50 (NCI-H460): 18.6 µM (inactive)
- GI50 (NCI-H522): 31.2 µM (inactive)
- GI50 (NCI/ADR-RES): 26.7 µM (inactive)
- GI50 (OVCAR-3): > 85.9 µM (inactive)
- GI50 (OVCAR-4): > 68.5 µM (inactive)
- GI50 (OVCAR-5): > 68.7 µM (inactive)
- GI50 (OVCAR-8): 47.1 µM (inactive)
- GI50 (PC-3): 28.7 µM (inactive)
- GI50 (RPMI-8226): 7.28 µM (inactive)
- GI50 (RXF 393): 15.6 µM (inactive)
- GI50 (SF-268): 54 µM (inactive)
- GI50 (SF-295): 11.4 µM (inactive)
- GI50 (SF-539): 51.5 µM (inactive)
- GI50 (SK-MEL-28): 68.2 µM (inactive)
- GI50 (SK-MEL-2): > 100 µM (inactive)
- GI50 (SK-MEL-5): 13.1 µM (inactive)
- GI50 (SK-OV-3): > 74.8 µM (inactive)
- GI50 (SN12C): > 93.8 µM (inactive)
- GI50 (SNB-19): > 87.5 µM (inactive)
- GI50 (SNB-75): 27.8 µM (inactive)
- GI50 (SR): 6.78 µM (inactive)
- GI50 (SW-620): 32.9 µM (inactive)
- GI50 (T47D): 18.4 µM (inactive)
- GI50 (TK-10): > 65.8 µM (inactive)
- GI50 (U-251): 58.9 µM (inactive)
- GI50 (UACC-257): > 54.5 µM (inactive)
- GI50 (UACC-62): 47.5 µM (inactive)
- GI50 (UO-31): 47.8 µM (inactive)

Compound: Brc1ccc(C2CC3(c4ccccc4)ON=C(c4ccccc4)N3c3ccccc3S2)cc1 (centres undefined)
- GI50 (786-0): > 100 µM (inactive)
- GI50 (A498): > 100 µM (inactive)
- GI50 (A549): > 100 µM (inactive)
- GI50 (ACHN): > 100 µM (inactive)
- GI50 (BT-549): > 100 µM (inactive)
- GI50 (CCRF-CEM): > 100 µM (inactive)
- GI50 (COLO 205): > 100 µM (inactive)
- GI50 (DU-145): > 100 µM (inactive)
- GI50 (EKVX): > 100 µM (inactive)
- GI50 (HCC 2998): > 100 µM (inactive)
- GI50 (HCT-116): 5.87 µM (inactive)
- GI50 (HCT-15): > 100 µM
- GI50 (HL-60): > 100 µM (inactive)
- GI50 (HOP-62): > 100 µM (inactive)
- GI50 (HOP-92): > 100 µM (inactive)
- GI50 (HT-29): 9.16 µM (inactive)
- GI50 (Hs-578T): > 100 µM (inactive)
- GI50 (IGROV-1): > 100 µM (inactive)
- GI50 (K562): > 100 µM (inactive)
- GI50 (KM12): > 100 µM (inactive)
- GI50 (LOX IMVI): > 100 µM (inactive)
- GI50 (M14): > 100 µM (inactive)
- GI50 (MCF7): > 100 µM (inactive)
- GI50 (MDA-MB-231): > 100 µM (inactive)
- GI50 (MDA-MB-435): > 100 µM (inactive)
- GI50 (MDA-N): > 100 µM (inactive)
- GI50 (MOLT-4): > 100 µM (inactive)
- GI50 (Malme-3M): > 100 µM (inactive)
- GI50 (NCI-H226): > 100 µM (inactive)
- GI50 (NCI-H23): > 100 µM (inactive)
- GI50 (NCI-H460): > 100 µM (inactive)
- GI50 (NCI-H522): > 100 µM (inactive)
- GI50 (NCI/ADR-RES): > 100 µM (inactive)
- GI50 (OVCAR-3): > 100 µM (inactive)
- GI50 (OVCAR-4): > 100 µM (inactive)
- GI50 (OVCAR-5): > 100 µM (inactive)
- GI50 (OVCAR-8): > 100 µM (inactive)
- GI50 (PC-3): > 100 µM (inactive)
- GI50 (RXF 393): > 100 µM (inactive)
- GI50 (SF-268): > 100 µM (inactive)
- GI50 (SF-295): > 100 µM (inactive)
- GI50 (SF-539): > 100 µM (inactive)
- GI50 (SK-MEL-28): > 100 µM (inactive)
- GI50 (SK-MEL-2): > 100 µM (inactive)
- GI50 (SK-MEL-5): > 100 µM (inactive)
- GI50 (SK-OV-3): > 100 µM (inactive)
- GI50 (SN12C): > 100 µM (inactive)
- GI50 (SNB-19): > 100 µM (inactive)
- GI50 (SNB-75): > 100 µM (inactive)
- GI50 (SR): 28.1 µM (inactive)
- GI50 (SW-620): > 100 µM (inactive)
- GI50 (T47D): > 100 µM (inactive)
- GI50 (TK-10): > 100 µM (inactive)
- GI50 (U-251): > 100 µM (inactive)
- GI50 (UACC-257): > 100 µM (inactive)
- GI50 (UACC-62): > 100 µM (inactive)
- GI50 (UO-31): > 100 µM (inactive)
